Data on 17 molecules can be found in ChEMBL document CHEMBL1255503, “Biochemical and biophysical characterization of unique switch pocket inhibitors of p38α” (Bioorg Med Chem Lett, 2010).

In experiment [1] the target is T1, Mitogen-activated protein kinase 14 (Homo sapiens, UniProt Q16539).
Description: Binding affinity to full-length GST-tagged p38alpha after 2.5 hrs by TR-FRET competition binding assay
Experiment [2] addresses T1, Mitogen-activated protein kinase 14. The source holds these as a separate data set.
Description: Binding affinity to full-length GST-tagged p38alpha by surface plasmon resonance assay

T1 sequence (Q16539 whole entry): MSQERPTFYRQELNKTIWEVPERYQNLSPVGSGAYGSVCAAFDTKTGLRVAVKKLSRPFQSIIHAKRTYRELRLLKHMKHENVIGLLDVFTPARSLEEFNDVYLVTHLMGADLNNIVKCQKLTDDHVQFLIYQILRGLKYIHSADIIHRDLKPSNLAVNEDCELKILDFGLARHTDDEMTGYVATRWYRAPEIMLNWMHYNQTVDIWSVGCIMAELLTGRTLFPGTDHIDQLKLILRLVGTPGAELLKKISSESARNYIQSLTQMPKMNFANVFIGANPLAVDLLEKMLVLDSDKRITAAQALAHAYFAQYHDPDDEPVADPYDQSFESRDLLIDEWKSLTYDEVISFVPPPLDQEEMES

Take `Cc1ccc(-n2nc(C(C)(C)C)cc2NC(=O)Nc2cccc3ccccc23)cc1C(=O)NCc1ccncn1`: the affinity in experiment [1] corresponds to a Ki of 327 nM.
In experiment [1], `Cc1ccc(-n2nc(C(C)(C)C)cc2NC(=O)Nc2cccc3ccccc23)cc1C(=O)NC1CCN(CCN2CCOCC2)CC1` displayed a Ki of 885 nM.
Molecule `Cc1ccc(-n2nc(C(C)(C)C)cc2NC(=O)Nc2cccc3ccccc23)cc1C(=O)NCCC1=CCCCC1` returned an inhibition constant (Ki) in experiment [1] greater than 3900 nM.
In turn, `COc1ccc(CCNC(=O)c2cc(-n3nc(C(C)(C)C)cc3NC(=O)Nc3cccc4ccccc34)ccc2C)cc1` displayed a Ki in experiment [1] greater than 3900 nM.
In turn, `Cc1ccc(-n2nc(C(C)(C)C)cc2NC(=O)Nc2cccc3ccccc23)cc1C(=O)NCC(CC(C)C)C(N)=O` (stereo not drawn) showed a Ki in experiment [1] of 786 nM.
`Cc1ccc(-n2nc(C(C)(C)C)cc2NC(=O)Nc2cccc3ccccc23)cc1C(=O)N[C@@H]1CS(=O)(=O)C[C@H]1O` displayed an inhibition constant Ki in experiment [1] of 112 nM.
In experiment [1], `Cc1ccc(-n2nc(C(C)(C)C)cc2NC(=O)Nc2cccc3ccccc23)cc1C(=O)NCCNc1ccccc1` yielded a Ki of 433 nM.
As to `Cc1ccc(-n2nc(C(C)(C)C)cc2NC(=O)Nc2cccc3ccccc23)cc1C(=O)N(CCCN)C(C)C`, affinity in experiment [1] was put at a Ki of 312 nM. This Ki and that of the molecule before are within 1.5-fold of each other.
`Cc1ccc(-n2nc(C(C)(C)C)cc2NC(=O)Nc2cccc3ccccc23)cc1C(=O)NCCCN1CCCC1` showed an inhibitory constant (Ki) in experiment [1] of 301 nM.
For `Cc1ccc(-n2nc(C(C)(C)C)cc2NC(=O)Nc2cccc3ccccc23)cc1C(=O)N(CCCN)C1CCCCC1`, the affinity in experiment [1] corresponds to a Ki of 89 nM.
The molecule `COCCCN1CCC(NC(=O)c2cc(-n3nc(C(C)(C)C)cc3NC(=O)Nc3cccc4ccccc34)ccc2C)CC1` yielded an inhibitory constant (Ki) in experiment [1] of 336 nM.
With `CCN(CCN(C)C)C(=O)c1cc(-n2nc(C(C)(C)C)cc2NC(=O)Nc2cccc3ccccc23)ccc1C`, the inhibition constant Ki in experiment [1] amounted to 735 nM.
For the molecule `Cc1ccc(-n2nc(C(C)(C)C)cc2NC(=O)Nc2cccc3ccccc23)cc1C(=O)NCCCN1CCOCC1`, the affinity in experiment [1], expressed as Ki, was 291 nM.
On the same count and under the same terms, in the case of `COc1ccccc1CCNC(=O)c1cc(-n2nc(C(C)(C)C)cc2NC(=O)Nc2cccc3ccccc23)ccc1C` it was greater than 3900 nM.
`Cc1ccc(-n2nc(C(C)(C)C)cc2NC(=O)Nc2cccc3ccccc23)cc1C(=O)NCC#N` gave a Kd in experiment [2] of 55 nM. The molecule also gave a Ki in experiment [1] of 252 nM.
Molecule `Cc1ccc(-n2nc(C(C)(C)C)cc2NC(=O)Nc2cccc3ccccc23)cc1C(=O)NCCN1CCN(C)CC1` came in with a Ki in experiment [1] of 140 nM.
Take `Cc1ccc(-n2nc(C(C)(C)C)cc2NC(=O)Nc2cccc3ccccc23)cc1C(=O)NC[C@@H](CO)C(C)C`: the Ki in experiment [1] was 471 nM.

By Ki is commonly meant a dissociation constant, usually derived from enzyme kinetics or from competition with a known ligand. A lower Ki goes with tighter binding. The term Kd denotes the equilibrium constant for the complex coming apart. Low readings indicate higher affinity, high ones lower affinity.
